Patent publication US20180050090A1, “COMPOSITIONS AND METHODS FOR SENSITIZING CELLS TO TRAIL-INDUCED APOPTOSIS” (THE JOHNS HOPKINS UNIVERSITY, priority 2008, published 2018)
Like-named read-outs stand apart in the source and are kept apart here.

Columns and labels:
[1] = tested on: HT-29 cells; test: HT-29 cell death (MTT) with DNA damaging agents, alone or with […]; type: cell-based, human; conditions: for apoptosis as relative cell death, low doses: 0.5 μg/mL DOX, CIS, 1 μg/mL 5-Fu, 0.6 μg/mL IRINO, 24 h pretreatment then 24 h drug alone or with TRAILPEG 1 μg/mL; for TRAIL-induced apoptosis, sub-lethal dose combined with TRAILPEG versus drug alone: DOX 2, 5-FU 10, CIS 2, IRINO 3 μg/mL
Procedure: A total of 1×10^4 cells were plated in 0.1 mL in 96-well flat bottom plates and incubated for 24 h before being exposed to various stimuli. After incubation for the indicated times, […] MTT solution was added to each well and incubated for 1 h. After removal of the medium, 200 μL of DMSO was added to each well to dissolve the formazan crystals. The absorbance at 540 nm was determined using a microplate reader (Bio-Tek Instruments, Inc, Winooski, Vt.). Triplicate wells were assayed for each condition.

[2] = tested on: HT-29 cells; test: Western blotting of apoptosis markers in HT-29 cells; type: cell-based, human; conditions: western blot
From the text: (§1) Immunoblots were visualized by an enhanced chemiluminescence method.

[3] = tested on: HT-29, MDA-MB-231, A549, PC3 cells; test: Cleaved PARP-1 western blot in TRAIL-resistant tumor cell lines; type: cell-based, human; conditions: HT-29, MDA-MB-231, A549, PC3 (and HCT116 for the combination)
From the text: (§3) Anti-caspase-8 (Cell Signaling Technology, Danvers, Mass., #9746), anti-cleaved PARP-1 (Cell Signaling Technology, #5625), anti-cleaved caspase-3 (Cell Signaling Technology, #9664), anti-cleaved caspase-9 (Cell Signaling Technology, #7237), anti-CD44 (Cell Signaling Technology, #5640), anti-p-JNK (Cell Signaling Technology, #4668), anti-p-p53 (Ser15 Cell Signaling Technology, #9284), anti-BCl-2 (Cell Signaling Technology, #2870), anti-p-BCL-2 (Cell Signaling Technology, #2875), anti-BCL-XL (Cell Signaling Technology, #2764), anti-DR4 (Abcam, Cambridge, Mass., #13890), anti-DR5 (Abcam, #47179), anti-c-Jun (Santa Cruz Biotechnology, Santa Cruz, Calif., sc-1694), or anti-β-actin (sc-47778) were used in the Western blot analysis. In generally, cells were lysed and sonicated briefly in ice-cold PBS buffer (1 mM PMSF, and 1 μg/ml each of aprotinin, leupeptin, and pepstatin A). Cell lysates were clarified by centrifugation, resolved by SDS-PAGE, and proteins on gels were transferred to nitrocellulose (Bio-Rad, Hercules, Calif.) using a semidry blotter (Bio-Rad). The membrane was blocked with 3% BSA in TBST (10 mM Tris-Cl, pH 8.0, 150 mM NaCl, 0.05% Tween-20) and incubated overnight at 4° C. with primary antibodies. Immunoblots were visualized by an enhanced chemiluminescence method.

[4] = tested on: DR4; conditions: HT-29 cells, DOX 24 h, qPCR
Procedure: (§2) Total cellular RNA was purified from HT-29 cells using Trizol reagent (Life Technology) and subjected to amplification with SuperScript One-Step RT-PCR system (Life Technology). Real-time PCR was carried out using a StepOne™ Real-Time PCR System according to the manufacturer instructions (Life Technology). The mean cycle threshold value (Ct) from triplicate samples was used to calculate the gene expression. β-actin was used as an internal control to normalize the variability in expression.

[5] = tested on: DR5; conditions: HT-29 cells, DOX 24 h, qPCR
Procedure: as §2

[6] = tested on: DR5; test: Western blot of DR5 protein in HT-29 cells; type: cell-based, human; conditions: DOX 2 μg/mL, regardless of TRAILPEG
From the text: as §1

[7] = DOX distribution in HT-29 xenograft tumors; type: in vivo, mice; conditions: HT-29 xenografts, single i.v. 7 mg/kg DOX-based
Procedure: Mice bearing HT-29 xenograft tumors were intravenously administered with DOX (7 mg/kg) and HAC/DOX (containing 7 mg/kg equivalent doxorubicin) when tumors reached 300 mm^3. At each selected time point, 3 mice in one group were euthanized by cervical dislocation. Whole blood was collected via cardiac puncture with a heparinized syringe. Tumors were dissected out and frozen at −70° C. immediately. Plasma samples were isolated from whole blood by centrifugation at 3000 g for 5 min. Tissues homogenates were prepared in 800 μL water using a Polytron homogenizer (Brinkman Instruments, Mississauga, Ontario, Canada), and then 200 μL of H2SO4 was added to the tissue homogenates. The solutions were then digested for 2 h at 60° C. After the vials cooled to room temperature, 100 μL of AgNO3 was added. Then the samples were centrifuged at 12,000 g for 10 min, and the supernatant was counted in a fluorospectrometer (RF-5301, Shimadzu) at an excitation wavelength of 500 nm and emission wavelength of 558 nm. The concentration of doxorubicin in each tissue was calculated based on a calibration curve. The calibration curve was linear over the 0.02 and 2.00 μg/mL range with a correlation coefficient of R^2=0.9993.

[8] = tested on: Casp-8, Casp-3; test: Western blot of cleaved caspases in HT-29 tumors in vivo; set-up: species or system mice; conditions: followed by TRAILPEG, HT-29 xenografts
From the text: as §1

[9] = Survival of HT-29 xenograft mice during treatment; type: in vivo, BALB/c athymic mice; conditions: high dose 7 mg/kg free DOX (with TRAILPEG), HT-29 xenografts
Procedure: The antitumor effects of […] after HAC/DOX sensitizing were investigated in HT-29 tumor bearing mice (n=5). Briefly, freshly harvested HT-29 cells (5×10^6 cells/mouse) were inoculated s.c. into BALB/c athymic mice. Treatment was initiated when the tumors reached a mean volume of 150 mm^3. Mice were treated with three rounds of DOX or HAC/DOX (7 mg/kg, i.v.) combined with […] (8 mg/kg, i.v.) for 10 days. The tumors were analyzed and calculated as described above. (n=5).

[10] = tested on: DR4; conditions: HT-29 cells, DOX 2 μg/mL
From the text: as §3

[11] = rodents; cited from earlier work
[12] = humans; cited from earlier work

## O=c1[nH]cc(F)c(=O)[nH]1 [5-FU, 5-fluorouracil]
[1]
  apoptosis as relative cell death, low doses: did not induce apoptosis
  TRAIL-induced apoptosis, sub-lethal dose combined with TRAILPEG versus drug alone: enhanced TRAIL-induced apoptosis was observed

## COc1cccc2c1C(=O)c1c(O)c3c(c(O)c1C2=O)C[C@@](O)(C(=O)CO)C[C@@H]3O[C@H]1C[C@H](N)[C@H](O)[C@H](C)O1 [DOX, doxorubicin]
[1]
  apoptosis as relative cell death, low doses: did not induce apoptosis
  TRAIL-induced apoptosis, sub-lethal dose combined with TRAILPEG versus drug alone: enhanced TRAIL-induced apoptosis was observed
[2]
  phosphorylation of p53 and activation of c-jun: led to the phosphorylation of p53 and the activation of c-jun
[3]
  cleaved PARP-1 expression: induced low levels of cleaved PARP-1
[4]
  DR4 mRNA levels: did not change
[5]
  increase of DR5 mRNA compared to untreated cells: 60%
[6]
  upregulation of DR5 expression at the protein level: 3 to 4 fold
[7]
  DOX concentration in tumor over time: gradually decreased with time
[8]; high dose 7 mg/kg DOX-based
  Casp-3 activation vs. control: 2 fold
[8]; low dose 2 mg/kg DOX-based
  Casp-3 activation vs. control: 2 fold
[9]
  mice died during the treatment cycle: 60%
[10]
  upregulation of DR4 expression at the protein level: not DR4

## CCc1c2c(nc3ccc(OC(=O)N4CCC(N5CCCCC5)CC4)cc13)-c1cc3c(c(=O)n1C2)COC(=O)[C@]3(O)CC [IRINO, irinotecan]
[1]
  apoptosis as relative cell death, low doses: did not induce apoptosis
  TRAIL-induced apoptosis, sub-lethal dose combined with TRAILPEG versus drug alone: enhanced TRAIL-induced apoptosis was observed

## Oc1c2ccccc2c2c3c(cccc13)N=N2 [SP600125]
[1]; SP600125 20 μM pre-treatment
  reduction of DOX and TRAILPEG-induced cell death: 35%

## rhTRAIL: recombinant human tumor necrosis factor (TNF)-related apoptosis inducing ligand
[11]
  half-life in physiological conditions: 3-5 min
[12]
  half-life in physiological conditions: less than 30 minutes
